We go through four compounds from patent US10759822B2 (priority 2016, dated 2020).

The test system of data set [1] is 030418-induced acute death in mice. Further details: species or system KM mice. The note with it: mouse, in vivo.
The subject of data set [2] is hyperactivity induced by d-amphetamine. The note with it: in vivo, ip, 2 mg/kg; cited from earlier work.
Data set [3] deals with field EPSP in the rat dentate gyrus. The note with it: in vivo, ip; cited from earlier work.
Data set [4] deals with 030418-induced respiratory depression rats. The note with it: rat, in vivo.
The conditions of data set [5]: mouse, in vivo.
The conditions of data set [6]: mouse, in vivo. The source holds these as a separate data set.

On to `CN(C(=O)c1ccc2nonc2c1)C1CCC(O)CC1` (stereo not drawn) [Compound a, N-(anti-4-hydroxycyclohexyl)-N-methylbenzo[c][1,2,5]oxadiazol-5-yl-carboxamide, reference compound], for which the Death rate in data set [1] was 20%. Moreover, the inhibition of hyperactivity in data set [2] is listed as 100%. Moreover, the “increase in the amplitude of the field EPSP” value in data set [3] is listed as 21%.

For `O=C(c1ccc2nccnc2c1)N1CCCCC1` [CX516, 6-(piperidin-1-yl-carbonyl)quinoxaline], in data set [3], the “increase in the amplitude of the field EPSP” value is reported as 9%.

On to `C/C(=C(\CCOC(=O)CCCC(=O)OC1CCC(N(C)C(=O)c2ccc3nonc3c2)CC1)SSCCC(C)C)N(C)C=O` (stereo not drawn) [Compound 15, Pentanedioic acid anti-4-[(benzo[c][1,2,5]oxadiazole-5-carbonyl)-methyl-amino]-cyclohexyl ester 3-isopentyldisulfanyl-4-(formyl-methyl-amino)-pent-3-enyl ester], for which, in data set [1], the “survival rate of mice” value is “increase the survival rate of mice in a dose-dependent manner”. Further, the “molar dose for the same anti-lethal effect, relative to Compound a” value in data set [1] (sc, 15 mg/kg) was “one-eighth”. In addition, in data set [4], the “antagonism toward the decreased respiratory rate and ventilation caused by 030418” value is “dose-dependent antagonism”; the “effect on respiratory rate and ventilation compared with Compound a” value is “same effect as Compound a (10 mg/kg)”. The “(AUC0-t)prodrug group/(AUC0-t)prototype drug group” value in data set [5] stood at 0.41. Moreover, the “(AUC0-t)prodrug/(AUC0-t)prototype drug” value in data set [6] is 2.23.

As to `CCCSS/C(CCOC(=O)CCCC(=O)OC1CCC(N(C)C(=O)c2ccc3nonc3c2)CC1)=C(/C)N(C)C=O` (stereo not drawn) [Compound 10, Pentanedioic acid anti-4-[(benzo[c][1,2,5]oxadiazole-5-carbonyl)-methyl-amino]-cyclohexyl ester 3-propyldisulfanyl-4-(formyl-methyl-amino)-pent-3-enyl ester], the “(AUC0-t)prodrug group/(AUC0-t)prototype drug group” value in data set [5] was 0.47. In addition, in data set [6], the “(AUC0-t)prodrug/(AUC0-t)prototype drug” value is recorded as 1.86.
